Test results from patent US20250257041A1, “INDUCERS OF INTEGRATED STRESS RESPONSE TO TREAT CANCER” (The Board of Regents of The University of Texas System, priority 2022, published 2025).

system: HCT116 WT; test: Proliferation of HCT116 colorectal cell line, Cell TiterGlo; assay type: cell-based, human; settings: Homo sapiens, HCT-116, wild type HCT116; 10-point dose response in triplicate; multiple values = separate independent experiments; read-out: HCT116 IC50 (uM) HCT116 WT
Description: Briefly, compounds were tested for their effect on proliferation of HCT116 colorectal cell lines using Cell TiterGlo (Promega). Each compound was tested in a 10-point dose response experiment in triplicate. Multiple values in the column titled HCT116 WT reflect separate independent experiments. The three columns titled “HCT116 WT (repeat)”, “HCT116-CGN2KO” and “HCT116 WT+ISRIB” provide data for selected compounds that were tested simultaneously under three conditions. The HCT116 WT column lists IC50 against the wild type HCT116 colorectal cancer cell line. The HCT116-CGN2KO lists IC50 data for cells in which one component of the integrated stress response, GCN2, has been knocked out using CRISPR technology.

Point of comparison: Cn1nc(-c2ccc(NC(=O)C3CCC3)cc2)cc1NC(=O)c1ccccc1 [SW394491, N-(3-(4-(Cyclobutanecarboxamido)phenyl)-1-methyl-1H-pyrazol-5-yl)benzamide], IC50 12 µM. Against it:
- Cn1nc(-c2ccc(NC(=O)c3ccccc3COCc3cn(CCOCCNC(=S)Nc4ccc(-c5c6ccc(=O)cc-6oc6cc(O)ccc56)c(C(=O)O)c4)nn3)cc2)cc1NC(=O)c1ccccc1 [SW393345, 5-(3-(2-(2-(4-(((2-((4-(5-benzamido-1-methyl-1H-pyrazol-3-yl)phenyl)carbamoyl)benzyl)oxy)methyl)-1H-1,2,3-triazol-1-yl)ethoxy)ethyl)thioureido)-2-(6-hydroxy-3-oxo-3H-xanthen-9-yl)benzoic acid] — within 1.5-fold, 11.4 µM
- Cn1nc(-c2ccc(NC(=O)C3CCCCC3)cc2)cc1NC(=O)c1ccccc1 [SW394442, N-(3-(4-(Cyclohexanecarboxamido)phenyl)-1-methyl-1H-pyrazol-5-yl)benzamide] — 500-fold lower, 0.024 µM
- Cn1nc(-c2ccc(NC(=O)c3cccnc3Cl)cc2)cc1NC(=O)c1ccccc1 [SW394443, N-(4-(5-Benzamido-1-methyl-1H-pyrazol-3-yl)phenyl)-2-chloronicotinamide] — 600-fold lower, 0.02 µM
- Cn1nc(C2CCC(NC(=O)c3ccccc3Cl)CC2)cc1NC(=O)c1ccccc1 (centres unmarked) [SW394444, N-(4-(5-benzamido-1-methyl-1H-pyrazol-3-yl)cyclohexyl)-2-chlorobenzamide] — higher, > 50 µM
- Cn1nc(-c2ccc(NC(=O)c3ccncc3Cl)cc2)cc1NC(=O)c1ccccc1 [SW394446, N-(4-(5-Benzamido-1-methyl-1H-pyrazol-3-yl)phenyl)-3-chloroisonicotinamide] — 240-fold lower, 0.05 µM
- Cn1nc(-c2ccc(NC(=O)c3ncccc3Cl)cc2)cc1NC(=O)c1ccccc1 [SW394447, N-(4-(5-Benzamido-1-methyl-1H-pyrazol-3-yl)phenyl)-3-chloropicolinamide] — 21-fold lower, 0.58 µM
- O=C(Nc1cccc(-c2ccc(NC(=O)c3ccccc3Cl)cc2)c1)c1ccccc1 [SW394484, N-(3′-benzamido-[1,1′-biphenyl]-4-yl)-2-chlorobenzamide] — 3-fold lower, 3.94 µM
- Cn1nc(-c2ccc(NC(=O)c3ccccc3-c3cncnc3)cc2)cc1NC(=O)c1ccccc1 [SW394485, N-(4-(5-Benzamido-1-methyl-1H-pyrazol-3-yl)phenyl)-2-(pyrimidin-5-yl)benzamide] — 110-fold lower, 0.107 µM
- Cn1nc(-c2ccc(NC(=O)c3ccccc3-c3cccnc3)cc2)cc1NC(=O)c1ccccc1 [SW394486, N-(4-(5-Benzamido-1-methyl-1H-pyrazol-3-yl)phenyl)-2-(pyridin-3-yl)benzamide] — 480-fold lower, 0.025 µM
- C#Cc1cccc(C(=O)Nc2cc(-c3ccc(NC(=O)c4cccnc4Cl)cc3)nn2C)c1 [SW394487, 2-Chloro-N-(4-(5-(3-ethynylbenzamido)-1-methyl-1H-pyrazol-3-yl)phenyl)nicotinamide] — 520-fold lower, 0.023 µM
- Cn1nc(-c2ccc(NC(=O)C3CCCC3)cc2)cc1NC(=O)c1ccccc1 [SW394488, N-(3-(4-(Cyclopentanecarboxamido)phenyl)-1-methyl-1H-pyrazol-5-yl)benzamide] — 38-fold lower, 0.32 µM
- Cn1nc(-c2ccc(NC(=O)C3CCN(C(=O)OC(C)(C)C)CC3)cc2)cc1NC(=O)c1ccccc1 [SW394490, tert-butyl4-((4-(5-benzamido-1-methyl-1H-pyrazol-3-yl)phenyl)carbamoyl)piperidine-1-carboxylate] — 3.1-fold lower, 3.84 µM
- Cn1nc(-c2ccc(NC(=O)C3CCCCCC3)cc2)cc1NC(=O)c1ccccc1 [SW394515, N-(4-(5-Benzamido-1-methyl-1H-pyrazol-3-yl)phenyl)cycloheptanecarboxamide] — 270-fold lower, 0.044 µM
- Cn1nc(-c2ccc(NC(=O)C3CCOCC3)cc2)cc1NC(=O)c1ccccc1 [SW394517, N-(4-(5-Benzamido-1-methyl-1H-pyrazol-3-yl)phenyl)tetrahydro-2H-pyran-4-carboxamide] — 38-fold lower, 0.32 µM
- Cc1ncccc1C(=O)Nc1ccc(-c2cc(NC(=O)c3ccccc3)n(C)n2)cc1 [SW394518, N-(4-(5-Benzamido-1-methyl-1H-pyrazol-3-yl)phenyl)-2-methylnicotinamide] — 750-fold lower, 0.016 µM
- Cc1ccncc1C(=O)Nc1ccc(-c2cc(NC(=O)c3ccccc3)n(C)n2)cc1 [SW394519, N-(4-(5-Benzamido-1-methyl-1H-pyrazol-3-yl)phenyl)-4-methylnicotinamide] — 48-fold lower, 0.25 µM
- Cn1nc(-c2ccc(NC(=O)c3ccccc3COCCNC(=O)OC(C)(C)C)cc2)cc1NC(=O)c1ccccc1 [SW394532, tert-butyl (2-((2-((4-(5-benzamido-1-methyl-1H-pyrazol-3-yl)phenyl)carbamoyl)benzyl)oxy)ethyl)carbamate] — 99-fold lower, 0.121 µM
- Cn1nc(-c2ccc(NC(=O)c3ccccc3C#CCNC(=O)OC(C)(C)C)cc2)cc1NC(=O)c1ccccc1 [SW394544, tert-butyl(3-(2-((4-(5-benzamido-1-methyl-1H-pyrazol-3-yl)phenyl)carbamoyl)phenyl)prop-2-yn-1-yl)carbamate] — 10-fold lower, 1.2 µM
- Cn1nc(-c2ccc(NC(=O)c3ccccc3Cl)cc2)cc1NC(=O)C1CCCCC1 [SW394546, 2-Chloro-N-(4-(5-(Cyclohexanecarboxamido)-1-methyl-1H-pyrazol-3-yl)phenyl)benzamide] — 360-fold lower, 0.033 µM
- Cn1nc(-c2ccc(NC(=O)c3ccccc3Cl)cc2)cc1NC(=O)C1CCOCC1 [SW394547, N-(3-(4-(2-Chlorobenzamido)phenyl)-1-methyl-1H-pyrazol-5-yl)tetrahydro-2H-pyran-4-car-boxamide] — 240-fold lower, 0.05 µM
- Cn1nc(-c2ccc(NC(=O)c3ccccc3-c3ccc([N+](=O)[O-])cc3)cc2)cc1NC(=O)c1ccccc1 [SW394548, N-(4-(5-Benzamido-1-methyl-1H-pyrazol-3-yl)phenyl)-4′-nitro-[1,1′-biphenyl]-2-carboxam-ide] — 11-fold lower, 1.13 µM
- C#Cc1cccc(C(=O)Nc2cc(-c3ccc(NC(=O)c4ccccc4-c4ccc(N=[N+]=[N-])cc4)cc3)nn2C)c1 [SW394549, 4′-Azido-N-(4-(5-(3-ethynylbenzamido)-1-methyl-1H-pyrazol-3-yl)phe-nyl)[1,1′-biphenyl]-2-carboxamide] — 2.9-fold lower, 4.1 µM
- O=C(Nc1ccc(-c2cc(NC(=O)c3ccccc3)on2)cc1)c1ccccc1 [SW394572, N-(4-(5-benzamidoisoxazol-3-yl)phenyl)benzamide] — 2.1-fold lower, 5.8 µM
- Cc1ncncc1C(=O)Nc1ccc(-c2cc(NC(=O)c3ccccc3)n(C)n2)cc1 [SW394598, N-(4-(5-Benzamido-1-methyl-1H-pyrazol-3-yl)phenyl)-4-methylpyrimidine-5-carboxamide] — 22-fold lower, 0.55 µM
- Cn1nc(-c2ccc(NC(=O)c3ccccc3Cl)cc2)cc1NC(=O)C1CCCCCC1 [SW394599, N-(3-(4-(2-Chlorobenzamido)phenyl)-1-methyl-1H-pyrazol-5-yl)cycloheptanecarboxamide] — 240-fold lower, 0.05 µM
- Cn1nc(-c2ccc(NC(=O)c3ccccc3Cl)cc2)cc1NC(=O)C1CCCC1 [SW394600, 2-Chloro-N-(4-(5-(cyclopentanecarboxamido)-1-methyl-1H-pyrazol-3-yl)phenyl)benzamide] — 240-fold lower, 0.051 µM

same assay, conditions: wild type HCT116; 10-point dose response in triplicate; multiple values = separate independent experiments

With O=C(Nc1cccc(-c2ccc(NC(=O)c3ccccc3Cl)cc2)n1)c1ccccc1 [SW394535, N-(4-(6-benzamidopyridin-2-yl)phenyl)-2-chlorobenzamide] the “HCT116 IC50 (uM) HCT116 WT” value was “inactive”.
With O=C(Nc1ccc(-c2nnc(NC(=O)c3ccccc3Cl)o2)cc1)c1ccccc1Cl [SW394597, 2-chloro-N-(4-(5-(2-chlorobenzamido)-1,3,4-oxadiazol-2-yl)phenyl)benzamide] the “HCT116 IC50 (uM) HCT116 WT” value was “inactive”.
